Read-outs that look alike come from different tables or passages of the source. Values belong to the compound of their own block, whether it stands above or below them.
Key:
[1] = system: THLE or HepG2 cells, isolated mitochondria, BSEP; conditions: cited from earlier work
[2] = Phase 3 clinical trials; ref Aleo et al. 2019; cited from earlier work
HepG2 [3] = system: HepG2; parameters: method as in Albrecht 2019; conditions: In vitro Assay; ref Albrecht 2019; cited from earlier work
HepG2 cells [4] = conditions: In vitro Assay; ref O'Brien 2006; cited from earlier work
HepG2 cells [5] = conditions: In vitro Assay; ref Tolosa 2012; cited from earlier work
PHH spheroids = conditions: cited from earlier work
[6] = cited from earlier work
PHH [7] = conditions: cited from earlier work
HepaRG cells = conditions: cited from earlier work
[8] = system: isolated mouse liver mitochondria; conditions: In vitro Assay; ref Porceddu 2012; cited from earlier work
rBsep = conditions: In vitro Assay; ref Dawson 2012; cited from earlier work
HepG2 [9] = conditions: cited from earlier work
[10] = Plasma free fraction (fu) and unbound Cmax (Cmax,u); format: in vitro ADME, human; conditions: unbound plasma Cmax
[11] = in vivo; cited from earlier work
[12] = system: primary human hepatocytes, NIH3T3 fibroblasts, BSEP, CYP3A4; conditions: cited from earlier work
human hepatocytes = conditions: cited from earlier work
PHH [13] = conditions: cited from earlier work; remark: listed apart in the source
hLiMTs [14] = conditions: cited from earlier work
[15] = read-out: Human plasma Cmax; total plasma Cmax.tot, median of 9 literature references; cited from earlier work
[16] = plasma free fraction; cited from earlier work
hLiMTs [17] = experiment: Combined HCI (HCS) and cellular ATP 3D assay in hLiMTs; conditions: for AC50 / minimal effective concentration: Homo sapiens
HepaRG spheroids = experiment: Combined HCI (HCS) and cellular ATP 3D assay in HepaRG spheroids; conditions: for AC50 / minimal effective concentration: Homo sapiens
[18] = In vitro Assay, ref Albrecht 2019
[19] = In vitro Assay, ref Schadt 2015
[20] = Microtissue model structural based (HCI), combined HCS and ATP, MEC < 25 × Cmax.tot cut-off

Compound: Cc1cc(OCCCS(C)(=O)=O)cc(C)c1-c1cccc(COc2ccc3c(c2)OC[C@H]3CC(=O)O)c1 [TAK-875, reference compound]
Partition HRM hybrid scoring model classification ([1]; ref Aleo et al. 2019): DILI concern
clinical liver finding [2]: liver injury

Compound: CO[C@H]1/C=C/O[C@@]2(C)Oc3c(C)c(O)c4c(O)c(c(/C=N/N5CCN(C)CC5)c(O)c4c3C2=O)NC(=O)/C(C)=C\C=C\[C@H](C)[C@H](O)[C@@H](C)[C@@H](O)[C@@H](C)[C@H](OC(C)=O)[C@@H]1C [rifampicin, reference compound]
Cytotoxicity HepG2 48 hrs (HepG2 [3]): +VE
Structural based (HCI) (HepG2 cells [4]): +VE
Structural based (HCI) (HepG2 cells [5]): +VE
DILI in vitro assay prediction, Vorrink (2018) (PHH spheroids; PHH spheroids, ATP, 14 days, IC20 < 20 × Cmax.tot, ref Vorrink et al. 2018): identified
In vivo DILI ([6]; ref Albrecht 2019): +VE
In vivo DILI ([6]; ref Dawson 2012): +VE
In vivo DILI ([6]; ref Gustafsson 2014): +VE
In vivo DILI ([6]; ref O'Brien 2006): +VE
In vivo DILI ([6]; ref Porceddu 2012): +VE
In vivo DILI ([6]; ref Schadt 2015): +VE
In vivo DILI ([6]; ref Tolosa 2012): +VE
Cytotoxicity PHH 48 hrs (PHH [7]; [18]): +VE
DILI identification by high-throughput transcriptomics (HepaRG cells; HepaRG cells, BMCs in relation to 10 × human Cmax.tot, ref National Toxicology Program): identified
in vitro data EC2<=1x Cmax [8]: +VE
in vitro data EC20<=2uM [8]: -VE
Inhibition of rBsep cutoff<1& cmax u>.2 (rBsep): +VE
Inhibition of rBsep cutoff<3 (rBsep): +VE

Compound: OC[C@H]1OC(O)[C@H](O)[C@@H](O)[C@@H]1O (stereo partly shown) [glucose, reference compound]
Cytotoxicity PHH 48 hrs (PHH [7]; [18]): +VE
Cytotoxicity HepG2 48 hrs (HepG2 [9]; [18]): +VE

Human plasma Cmax,u [10]: 1.205 µM
hLiMTs <25x Avg Cmax ATP (hLiMTs [17]; hLiMTs, ATP endpoint, cut-off <25x Avg Cmax): +ve
hLiMTs <100x Avg Cmaxu ATP (hLiMTs [17]; hLiMTs, ATP endpoint, cut-off <100x Avg Cmaxu): +ve (<100x Avg Cmaxu)
hLiMTs <25x Avg Cmax HCS (hLiMTs [17]; hLiMTs, HCS endpoints, cut-off <25x Avg Cmax): +ve
hLiMTs <100x Avg Cmaxu HCS (hLiMTs [17]; hLiMTs, HCS endpoints, cut-off <100x Avg Cmaxu): +ve (<100x Avg Cmaxu)
hLiMTs <25x Avg Cmax All (hLiMTs [17]; hLiMTs, all endpoints (ATP and HCS), cut-off <25x Avg Cmax): +ve
hLiMTs Cmax max All (hLiMTs [17]; hLiMTs, all endpoints, Cmax max used): +ve
hLiMTs Cmax min All (hLiMTs [17]; hLiMTs, all endpoints, Cmax min used): +ve
hLiMTs <10 uM All (hLiMTs [17]; hLiMTs, all endpoints, cut-off <10 uM): -ve
hLiMTs <100x Avg Cmaxu All (hLiMTs [17]; hLiMTs, all endpoints, cut-off <100x Avg Cmaxu): +ve (<100x Avg Cmaxu)
HepaRG <25x Avg Cmax ATP (HepaRG spheroids; HepaRG, ATP endpoint, cut-off <25x Avg Cmax): +ve
HepaRG <100x Avg Cmaxu ATP (HepaRG spheroids; HepaRG, ATP endpoint, cut-off <100x Avg Cmaxu): +ve (<100x Avg Cmaxu)
HepaRG <25x Avg Cmax HCS (HepaRG spheroids; HepaRG, HCS endpoints, cut-off <25x Avg Cmax): +ve
HepaRG <100x Avg Cmaxu HCS (HepaRG spheroids; HepaRG, HCS endpoints, cut-off <100x Avg Cmaxu): +ve (<100x Avg Cmaxu)
HepaRG <25x Avg Cmax All (HepaRG spheroids; HepaRG, all endpoints (ATP and HCS), cut-off <25x Avg Cmax): +ve
HepaRG Cmax max All (HepaRG spheroids; HepaRG, all endpoints, Cmax max used): +ve
HepaRG Cmax min All (HepaRG spheroids; HepaRG, all endpoints, Cmax min used): +ve
HepaRG <10 uM All (HepaRG spheroids; HepaRG, all endpoints, cut-off <10 uM): +ve (<10 uM)
HepaRG <100x Avg Cmaxu All (HepaRG spheroids; HepaRG, all endpoints, cut-off <100x Avg Cmaxu): +ve (<100x Avg Cmaxu)
Compound: N[C@@H]1[C@H]2CN(c3nc4c(cc3F)c(=O)c(C(=O)O)cn4-c3ccc(F)cc3F)C[C@@H]12 [trovafloxacin]
DILI +VE (5-8), DILI -VE (-4) [11]: +VE
DILI severity category (Chen et al. [2016]) [11]: Most
DILI in vitro assay prediction, Schadt (2015) ([12]; BSEP & Metabolism based, ref Schadt et al. 2015): -VE
Cellular toxicity (3T3 cells) [12, 19]: -VE
Combined Assay [12, 19]: -VE
GSH adduct HML [12, 19]: -VE
Hepatocyte cellular toxicity [12, 19]: -VE
MitoTox 3T3 [12, 19]: -VE
TDI CYP3A4 [12, 19]: -VE
hBSEP inhibition [12, 19]: -VE
Structural based (HCI) (human hepatocytes): +VE
Rule of Two hybrid HRM Score ≥3, Aleo (2019) [1]: +VE (key: +VE: Rule of Two hybrid HRM Score ≥3)
Rule of Two hybrid HRM Score ≥8, Aleo (2019) [1]: -VE
PHH ATP <100uM (PHH [13]): -VE
PHH/100uM, Proctor (2017) (PHH [13]): -VE
hLiMTs ATP <100uM (hLiMTs [14]): -VE
hLiMTs/100uM, Proctor (2017) (hLiMTs [14]): -VE
DILI in vitro assay prediction, Vorrink (2018) (PHH spheroids): identified
Cmax [15]: 5.02 µM
fu [16]: 0.240
Assigned DILI category ([6]; in vivo): 3
In vivo DILI ([6]; in vivo): +VE
DILI identification by high-throughput transcriptomics (HepaRG cells): identified
AC50 (hLiMTs [17]; read-out: ATP endpoint AC50): 29.4 µM
minimal effective concentration (hLiMTs [17]; read-out: ATP endpoint MEC): 16.4 µM
AC50 (hLiMTs [17]; read-out: HCS endpoint AC50): 38.9 µM
minimal effective concentration (hLiMTs [17]; read-out: HCS endpoint MEC): 20.1 µM
DILI prediction hLiMTs (HCS-MEC) (hLiMTs [17]; [20]): +VE (MEC < 25 × Cmax.tot cut-off)
AC50 (HepaRG spheroids; HepaRG, read-out: ATP endpoint AC50): 12.9 µM
minimal effective concentration (HepaRG spheroids; HepaRG, read-out: ATP endpoint MEC): 7.27 µM
AC50 (HepaRG spheroids; HepaRG, read-out: HCS endpoint AC50): 24.9 µM
minimal effective concentration (HepaRG spheroids; HepaRG, read-out: HCS endpoint MEC): 17.5 µM
DILI prediction HepaRG spheroids (HCS-MEC) (HepaRG spheroids; [20]): +VE (MEC < 25 × Cmax.tot cut-off)

Compound: Oc1cc(Cl)ccc1Oc1ccc(Cl)cc1Cl [triclosan]
In vivo DILI ([6]; ref Albrecht 2019): -VE
Cytotoxicity PHH 48 hrs (PHH [7]; [18]): -VE
Cytotoxicity HepG2 48 hrs (HepG2 [9]; [18]): +VE

Compound: COC(=O)c1ccc(O)cc1 [methylparaben]
In vivo DILI ([6]; in vivo): -VE
Cytotoxicity PHH 48 hrs (PHH [7]): -VE
Cytotoxicity HepG2 48 hrs (HepG2 [9]): -VE

— article PMC7395068, “The evolution of strategies to minimise the risk of human drug-induced liver injury (DILI) in drug discovery and development” (Archives of Toxicology, 2020)
